Laboratory results taken from ChEMBL document CHEMBL1955818, “Might the observed α(2A)-adrenoreceptor agonism or antagonism of allyphenyline analogues be ascribed to different molecular conformations?” (Bioorg Med Chem, 2012).

Key:
[1] = target: T1, Alpha-2A adrenergic receptor (Homo sapiens, UniProt P08913); test: Displacement of [3H]RS-79948-197 from human adrenoceptor aplha 2A expressed in CHO cells; assay type: cell-based
T1 sequence (P08913 whole entry): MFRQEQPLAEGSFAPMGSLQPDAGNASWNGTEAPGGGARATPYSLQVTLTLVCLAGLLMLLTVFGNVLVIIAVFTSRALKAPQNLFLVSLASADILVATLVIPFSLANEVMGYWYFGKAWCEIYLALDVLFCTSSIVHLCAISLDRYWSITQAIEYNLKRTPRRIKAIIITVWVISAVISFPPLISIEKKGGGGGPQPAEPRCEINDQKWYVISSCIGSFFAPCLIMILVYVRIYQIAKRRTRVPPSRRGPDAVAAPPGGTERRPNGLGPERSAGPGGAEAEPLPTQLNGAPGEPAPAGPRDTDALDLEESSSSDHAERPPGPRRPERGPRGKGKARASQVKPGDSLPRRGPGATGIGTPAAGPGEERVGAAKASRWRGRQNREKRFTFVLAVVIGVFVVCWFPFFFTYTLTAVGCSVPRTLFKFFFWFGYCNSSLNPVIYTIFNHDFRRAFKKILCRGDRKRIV

[2] = target: T2, Alpha-2B adrenergic receptor (Homo sapiens, UniProt P18089); test: Displacement of [3H]RS-79948-197 from human adrenoceptor aplha 2B expressed in CHO cells; assay type: cell-based
T2 sequence (P18089 whole entry): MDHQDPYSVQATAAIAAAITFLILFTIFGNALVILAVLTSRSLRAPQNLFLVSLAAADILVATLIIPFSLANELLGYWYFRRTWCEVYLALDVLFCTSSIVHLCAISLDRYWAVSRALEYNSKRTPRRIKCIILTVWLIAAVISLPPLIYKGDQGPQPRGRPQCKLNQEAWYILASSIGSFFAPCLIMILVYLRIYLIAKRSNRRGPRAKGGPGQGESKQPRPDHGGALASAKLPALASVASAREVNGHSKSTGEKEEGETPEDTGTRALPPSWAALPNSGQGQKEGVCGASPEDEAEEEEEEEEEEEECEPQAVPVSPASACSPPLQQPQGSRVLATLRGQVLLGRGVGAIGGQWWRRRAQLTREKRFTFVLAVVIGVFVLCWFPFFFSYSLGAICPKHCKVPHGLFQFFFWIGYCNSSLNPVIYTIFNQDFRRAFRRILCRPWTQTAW

[3] = target: T3, Alpha-2C adrenergic receptor (Homo sapiens, UniProt P18825); test: Displacement of [3H]RS-79948-197 from human adrenoceptor aplha 2C expressed in CHO cells; assay type: cell-based
T3 sequence (P18825 whole entry): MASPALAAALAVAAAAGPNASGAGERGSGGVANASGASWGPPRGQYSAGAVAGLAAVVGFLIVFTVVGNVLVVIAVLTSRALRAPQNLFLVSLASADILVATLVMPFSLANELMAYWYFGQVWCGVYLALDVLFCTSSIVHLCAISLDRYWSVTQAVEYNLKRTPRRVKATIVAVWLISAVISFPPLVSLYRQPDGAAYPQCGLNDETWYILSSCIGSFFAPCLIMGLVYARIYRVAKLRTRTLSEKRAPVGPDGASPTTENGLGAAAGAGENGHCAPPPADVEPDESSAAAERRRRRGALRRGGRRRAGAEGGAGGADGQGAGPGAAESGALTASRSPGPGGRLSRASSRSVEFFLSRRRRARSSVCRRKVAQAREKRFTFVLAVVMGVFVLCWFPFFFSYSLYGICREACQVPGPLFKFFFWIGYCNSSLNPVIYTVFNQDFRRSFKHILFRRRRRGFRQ

[4] = target: T2, Alpha-2B adrenergic receptor; test: Agonist activity at human adrenoceptor aplha 2B expressed in CHO cells assessed as rate of extracellular acidification by cytosensor microphysiometric analysis; assay type: functional, cell-based
[5] = target: T3, Alpha-2C adrenergic receptor; test: Agonist activity at human adrenoceptor aplha 2C expressed in CHO cells assessed as rate of extracellular acidification by cytosensor microphysiometric analysis; assay type: functional, cell-based
[6] = target: T4, Alpha-2B adrenergic receptor (Homo sapiens) (UniProt P18089); test: Intrinsic activity at human adrenoceptor aplha 2B expressed in CHO cells by cytosensor microphysiometric analysis relative to (-)-noradrenaline; assay type: cell-based
T4 sequence (whole entry): T2 sequence (P18089 whole entry)

[7] = target: T5, Alpha-2C adrenergic receptor (Homo sapiens) (UniProt P18825); test: Intrinsic activity at human adrenoceptor aplha 2C expressed in CHO cells by cytosensor microphysiometric analysis relative to (-)-noradrenaline; assay type: cell-based
T5 sequence (whole entry): T3 sequence (P18825 whole entry)

[8] = target: T6, Alpha-2A adrenergic receptor (Homo sapiens) (UniProt P08913); details: CHO
T6 sequence (whole entry): T1 sequence (P08913 whole entry)
Description: Antagonist activity at human adrenoceptor aplha 2A expressed in CHO cells assessed as inhibition of clonidine-induced response by cytosensor microphysiometric analysis

[9] = target: T1, Alpha-2A adrenergic receptor; test: Agonist activity at human adrenoceptor aplha 2A expressed in CHO cells assessed as rate of extracellular acidification by cytosensor microphysiometric analysis; assay type: functional, cell-based

Structure (SMILES) | Ki [1] [nM] | Ki [2] [nM] | Ki [3] [nM] | EC50 [4] [nM] | EC50 [5] [nM] | Intrinsic activity [6] | Intrinsic activity [7] | pKb [8] | EC50 [9] [nM]
CCOc1ccccc1OC(C)C1=NCCN1 (centres undefined) | 97.7 | 1320 | 759 | 3160 | 10000 | 0.5 | 0.45 | 6.5 | 
CCc1ccccc1OC(C)C1=NCCN1 (centres undefined) | 24 | 282 | 288 | 10000 | 100 | 0.5 | 0.6 | 6 | 
C=C(C)c1ccccc1OC(C)C1=NCCN1 (centres undefined) | 72.4 | 871 | 603 | 1580 | 115 | 0.4 | 0.71 | 7 | 
CC(Oc1ccccc1CC1CC1)C1=NCCN1 (centres undefined) [CYCLOMETHYLINE] | 36.3 | 407 | 275 | 3310 | 2 | 0.7 | 0.8 |  | 
COc1ccccc1OC(C)C1=NCCN1 (centres undefined) | 57.5 | 871 | 832 | 100000 | 9770 | 0.5 | 0.6 | 6.6 | 
C=CCc1cccc(CC=C)c1OC(C)C1=NCCN1 (centres undefined) | 16.6 | 275 | 129 | 501 | 56.2 | 0.65 | 0.9 | 8.56 | 
CC(Oc1ccccc1S(C)(=O)=O)C1=NCCN1 (centres undefined) | 3160 | 51300 | 3800 | 10000 | 316 | 0.45 | 0.6 |  | 562
CC(Oc1ccccc1Cl)C1=NCCN1 (centres undefined) | 28.8 | 331 | 490 | 162 | 166 | 0.44 | 0.83 | 7.2 | 
CC(=O)c1ccccc1OC(C)C1=NCCN1 (centres undefined) | 1020 | 6170 | 7410 | 295 | 200 | 0.6 | 0.65 |  | 63.1
CC(C)Oc1ccccc1OC(C)C1=NCCN1 (centres undefined) | 83.2 | 1580 | 398 | 1740 | 100 | 0.5 | 0.7 | 6.82 | 
CC(Oc1ccccc1Br)C1=NCCN1 (centres undefined) | 22.9 | 355 | 282 | 316 | 10 | 0.4 | 0.87 | 7.04 | 
C=COc1ccccc1OC(C)C1=NCCN1 (centres undefined) |  |  |  | 3160 | 631 | 0.45 | 0.48 | 5 | 
CC(Oc1ccccc1OC1CC1)C1=NCCN1 (centres undefined) | 83.2 | 1050 | 676 | 12900 | 47.9 | 0.6 | 0.7 | 6.9 | 
CC(Oc1c(Cl)cccc1Cl)C1=NCCN1 (centres undefined) [LOFEXIDINE] |  | 67.6 | 69.2 | 126 | 1.38 | 0.8 | 0.8 |  | 
CC(Oc1ccccc1C(C)C)C1=NCCN1 (centres undefined) | 72.4 | 933 | 457 | 251 | 398 | 0.54 | 0.73 | 6.82 | 
CCc1cccc(CC)c1OC(C)C1=NCCN1 (centres undefined) | 31.6 | 269 | 275 | 1000 | 27.5 | 0.8 | 0.65 |  | 11.7
CC(Oc1c(-c2ccccc2)cccc1-c1ccccc1)C1=NCCN1 (centres undefined) | 490 | 4570 | 631 | 200 | 79.4 | 0.6 | 0.7 | 8 | 
CC(Oc1ccccc1C(F)(F)F)C1=NCCN1 (centres undefined) | 182 | 1620 | 977 | 240 | 794 | 0.4 | 0.72 | 6.42 | 
Cc1cccc(C)c1OC(C)C1=NCCN1 (centres undefined) | 11.7 | 182 | 251 | 1480 | 27.5 | 0.8 | 0.82 |  | 18.6
CC(Oc1ccccc1C=O)C1=NCCN1 (centres undefined) | 1050 | 2090 | 8710 | 316 | 100 | 0.5 | 0.6 |  | 31.6
